Source: article PMC10054091, “Maleic Acid as a Co-Former for Pharmaceutically Active GABA Derivatives: Mechanochemistry or Solvent Crystallization?” (Materials, 2023)
Converted amounts (≈) assume the structure as drawn. “And” between values parts separate entries of the source, which are not always exact repeats. Equal entries are not always repeated.

What was measured:
[1] = Solubility in aqueous medium by 1H-NMR of saturated solutions
Method: Solubilities: Determination of substance solubilities were performed through ^1H-NMR spectroscopy with a Bruker Avance III NMR-spectrometer at 600 MHz. Saturated solutions of crystalline material were placed in an incubator at 25 °C and moved for 60 min^−1. Three samples of each investigated substance were left for three days under these conditions. Subsequently, 50 μL of the solution was removed from the samples and added to 450 μL of D2O for ^1H-NMR measurements. Solubility was determined by the ratio of integrated solvent to substance peak. Solubility values are presented as averages over the recorded samples with the error margin according to their standard deviation. […]
7 Solubility determination details
Solubilities were determined with 1H-NMR. Three samples for each single compound and three samples for each received maleate gained through grinding or solvent crystalliz ation were prepared. For this, dispersions of the investigated compounds in water were prepared in such a way that no complete dissolution would occur after three days at 25 °C in an incubator shaking with 60 min -1. Subsequently, 50 μL of liquid were removed from the samples and added to 450 μL of D 2O prepared in an NMR-tube. 1H-NMR measurements were conducted on a Bruker Avance III NMR-spectrometer at 600 MHz. Solubilities were determined by phase and baseline correction of the received spectrum in MestReNova software x64 14.2.0, application of D 2O shift on the solvent peak from the MestReNova […]
database. Integration of a chosen signal in the received spectrum and furt her integration of the solvent signal. The latter signal was always integrated in the borders of 5.000 – 4.600 ppm, the product signals were integrated in as narrow a range as possible ( Table S7). Trace water in D 2O w as considered negligible. Solubilities were calculated by the following […]
Where S p is the solubility of the API in gL -1, M p is the molar mass of the targeted API in g mol-1, I w is the value of the water integral received, n is an adjustment factor necessary if […]
= 2 because solvent is water), M w is the molar mass of water in gmol -1 and ρw is the density of water at 25 °C in gL-1. Error was calculated as the standard deviation of the three recorded samples according to Equation 2.
Here V is the standard deviation, x is the average of the three solubility values, x̅ each single solubility value and n the number of samples, three.

[2] = cited from earlier work
[3] = given enough time
Method: PXRD: Powder patterns were recorded on a Rigaku Miniflex 300 powder diffractometer with a Cu-Source and Kα radiation at […] in Θ/2Θ-geometry. Measurements were conducted at ambient temperature in a range of 5–50° 2Θ.

[4] = API solubility, aqueous medium, 25 °C, saturated solutions after three days, 1H-NMR, average of three samples, _M = mechanochemically prepared sample
[5] = Table S7, water, 25 °C, three days, three samples, _sol = solvent crystallization, _mill = grinding
[6] = product obtained by grinding (mechanochemical), water, 25 °C, three days
[7] = product obtained from solution (solvent product), water, 25 °C, three days
[8] = aqueous medium, 25 °C, three days

Gabapentin maleate hydrate [2-MA•H2O]
Solubility [1, 4]: 241 ± 8 gL^−1 and 241 gL^−1 | Sp ± V (solubility of the API ± standard deviation) [1, 5]: 241 ± 8 gL-1

(S)-Pregabalin maleate hydrate [(S)-3-MA•H2O]
Solubility [1, 4]: 977 gL^−1 | Solubility ([1]; API solubility, aqueous medium, 25 °C, saturated solutions after three days, 1H-NMR, average of three samples, _M = mechanochemically prepared sample, listed as (S)-3-MA•H2O_M): 809 gL^−1 | Sp ± V (solubility of the API ± standard deviation) ([1]; Table S7, water, 25 °C, three days, three samples, _sol = solvent crystallization, _mill = grinding, listed as (S)-3-MA• H2O_mill): 809 ± 8 gL-1 | Sp ± V (solubility of the API ± standard deviation) ([1]; Table S7, water, 25 °C, three days, three samples, _sol = solvent crystallization, _mill = grinding, listed as (S)-3-MA• H2O_sol): 977 ± 79 gL-1 | Solubility [1, 6]: 809 ± 8 gL^−1 | Solubility [1, 7]: 977 ± 79 gL^−1

NCC1(CC(=O)O)CCCCC1.O=C(O)C=CC(=O)O [2-MA, Gabapentin maleate]
Solubility [1, 4]: 218 ± 8 gL^−1 | Solubility ([1]; API solubility, aqueous medium, 25 °C, saturated solutions after three days, 1H-NMR, average of three samples, _M = mechanochemically prepared sample, listed as 2-MA_M): 218 gL^−1 | Sp ± V (solubility of the API ± standard deviation) [1, 5]: 218 ± 8 gL-1

CC(C)CC(CN)CC(=O)O (racemic) [(rac)-3•H2O, (rac)-Pregabalin hydrate, reference compound]
Sp ± V (solubility of the API ± standard deviation) [1, 5]: 33 ± 1 gL-1 | Increase of API solubility in its maleate compared to the pure form ([1]; aqueous medium, 25 °C): 23 fold | solubility thermodynamic at 3 days ([1]; water): 33 mg/mL

CC(C)C[C@H](CN)CC(=O)O [compound 3, Pregabalin, reference compound]
pKa of the acid function [2]: around 4 | Increase of API solubility in its maleate compared to the pure form ([1]; aqueous medium, 25 °C, listed as Pregabalin): up to twentyfold

NCC(CC(=O)O)c1ccc(Cl)cc1.O=C(O)C=CC(=O)O (stereo not drawn) [5-MA, Baclofen maleate]
Solubility [1, 4]: 6 gL^−1 | Sp ± V (solubility of the API ± standard deviation) ([1]; Table S7, water, 25 °C, three days, three samples, _sol = solvent crystallization, _mill = grinding, listed as 5-MA_mill): 6 ± 0.6 gL-1 | Sp ± V (solubility of the API ± standard deviation) ([1]; Table S7, water, 25 °C, three days, three samples, _sol = solvent crystallization, _mill = grinding, listed as 5-MA_sol): 6 ± 0.3 gL-1 | Change of solubility of the maleate versus the pure API (in words) [1, 8]: uniform increases in solubility

NCC(CC(=O)O)c1ccccc1 (stereo not drawn) [compound 4, Phenibut, reference compound]
pKa of the acid function [2]: around 4 | Sp ± V (solubility of the API ± standard deviation) [1, 5]: 15 ± 0.3 gL-1 | Increase of API solubility in its maleate compared to the pure form ([1]; aqueous medium, 25 °C): eightfold | solubility thermodynamic at 3 days ([1]; water): 15 mg/mL (≈ 83.7 mM)

NCC1(CC(=O)O)CCCCC1 [compound 2, Gabapentin, reference compound]
pKa of the acid function [2]: around 4 | Sp ± V (solubility of the API ± standard deviation) [1, 5]: 174 ± 7 gL-1 | solubility thermodynamic at 3 days ([1]; water): 174 mg/mL (≈ 1020 mM)

NCC(CC(=O)O)c1ccc(Cl)cc1 (stereo not drawn) [compound 5, Baclofen, reference compound]
pKa of the acid function [2]: around 4 | Increase of API solubility in its maleate compared to the pure form [1]: twofold | Sp ± V (solubility of the API ± standard deviation) [1]: 3 ± 0.1 gL-1 | solubility thermodynamic at 3 days ([1]; water): 3 mg/mL (≈ 14 mM)

CC(C)CC(CN)CC(=O)O.O=C(O)C=CC(=O)O (racemic) [(rac)-3-MA-I, (rac)-Pregabalin maleate I]
Phase stability of the solid form over time [3]: converts to (rac)-3-MA-II

CC(C)CC(CN)CC(=O)O.O=C(O)C=CC(=O)O (racemic) [(rac)-3-MA, (rac)-Pregabalin maleate]
Solubility [1, 4]: 719 gL^−1 | Solubility ([1]; API solubility, aqueous medium, 25 °C, saturated solutions after three days, 1H-NMR, average of three samples, _M = mechanochemically prepared sample, listed as (rac)-3-MA_M): 556 gL^−1 | Sp ± V (solubility of the API ± standard deviation) ([1]; Table S7, water, 25 °C, three days, three samples, _sol = solvent crystallization, _mill = grinding, listed as (rac)-3-MA_mill): 559 ± 19 gL-1 | Sp ± V (solubility of the API ± standard deviation) ([1]; Table S7, water, 25 °C, three days, three samples, _sol = solvent crystallization, _mill = grinding, listed as (rac)-3-MA_sol): 719 ± 10 gL-1 | Solubility [1, 6]: 556 ± 19 gL^−1 | Solubility [1, 7]: 719 ± 10 gL^−1

CC(C)C[C@H](CN)CC(=O)O [(S)-3, (S)-Pregabalin, reference compound]
Sp ± V (solubility of the API ± standard deviation) [1, 5]: 41 ± 1 gL-1 | Increase of API solubility in its maleate compared to the pure form ([1]; aqueous medium, 25 °C, listed as (S)-Pregabalin): 21 fold | solubility thermodynamic at 3 days ([1]; water): 41 mg/mL (≈ 257 mM)

O=C(O)/C=C\C(=O)O [MA, Maleic acid]
pKa1 [2]: 1.74 | pKa2 [2]: 5.81 | Solubility [1]: 687 ± 44 gL^−1 | Sp ± V (solubility of the API ± standard deviation) [1]: 687 ± 44 gL-1 | solubility thermodynamic at 3 days ([1]; water): 687 mg/mL (≈ 5920 mM)

NCC(CC(=O)O)c1ccccc1.O=C(O)C=CC(=O)O (stereo not drawn) [4-MA, Phenibut maleate]
Solubility [1, 4]: 124 gL^−1 | Solubility ([1]; API solubility, aqueous medium, 25 °C, saturated solutions after three days, 1H-NMR, average of three samples, _M = mechanochemically prepared sample, listed as 4-MA_M): 128 gL^−1 | Sp ± V (solubility of the API ± standard deviation) ([1]; Table S7, water, 25 °C, three days, three samples, _sol = solvent crystallization, _mill = grinding, listed as 4-MA_mill): 128 ± 8 gL-1 | Sp ± V (solubility of the API ± standard deviation) ([1]; Table S7, water, 25 °C, three days, three samples, _sol = solvent crystallization, _mill = grinding, listed as 4-MA_sol): 124 ± 4 gL-1 | Change of solubility of the maleate versus the pure API (in words) [1, 8]: uniform increases in solubility
